Experimental data: US20050101530A1, “Cellular virus receptors and methods of use” (Topigen Pharmaceutique, Inc., priority 2001, published 2005)

Columns and labels:
[1] = target: human chemokine receptor CCR3 (human) (UniProt P51677); assay: cell-based or functional assay
RSV = RSV infection of CCR3 transfected GHOST cells, immunostaining; type: cell-based, respiratory syncytial virus (RSV) A2 strain; settings: Eotaxin 1 μg/ml, anti-RSV F-protein immunostaining, FIG. 3B
Experimental: (§1) A549, Hep2, or GHOST cells were infected by RSV A2 strain at different multiplicity of infection (MOI). The results presented in this work were performed at a MOI of 1:0.1. The MOI 1:0.1 is the cut off of permissive and restrictive infection. The cells expressing the chemokine receptor CCR3 (Ghost-CCR3+, Hep2 and A549) were found permissive at a MOI 1:0.1 and the chemokine receptor CCR3 is considered as the high affinity coreceptor for RSV infection. Infection experiments undertaken with GHOST cells expressing only one of the following chemokine receptors the CCR1, CCR2b, CCR4, CCR5, CCR8 or CXCR4, were performed at a MOI of 1:2. These GHOST cells (CCR1, CCR-2b, CCR-4, CCR-5, CCR-8 and CXCR4), were not infected at a MOls of 1:0.1 and 1:1. The chemokine receptors CCR1, CCR2, CCR4, CCR5, CCR8 were considered subsequently as low affinity coreceptors in regard to RSV infection. […] These cells were not infected by RSV at a MOI 1:5 and lesser (1:4, 1:3, 1:2, 1:1 and 1:0.1).
We have also assessed whether CCR3 transfected GHOST cells support RSV infection and produce infectious virus. We performed this by using the same methods as described in FIG. 3. […]
After fixing the cells in 4% paraformaldehyde in phosphate buffered saline (PBS), the presence of virus was detected by immunostaining. […]

[2] = target: T1, RSV-G protein and CCR3 receptor (Homo sapiens, UniProt P51677); assay: Anti-CCR3 immunoprecipitation and anti-RSV-G Western blot of RSV-infected Hep2 cells; type: cell-based; settings: Hep2 cells infected by RSV in the presence of 2 μg/ml of Eotaxin; FIG. 1 lane 3
T1 construct: physical contact between the CCR3 receptor and the RSV-G protein in Hep-2 cells; endogenous in cells; host or cells: Hep-2 epithelial cells (ATCC) infected with RSV A2 (ATCC)
T1 sequence (P51677 1-355): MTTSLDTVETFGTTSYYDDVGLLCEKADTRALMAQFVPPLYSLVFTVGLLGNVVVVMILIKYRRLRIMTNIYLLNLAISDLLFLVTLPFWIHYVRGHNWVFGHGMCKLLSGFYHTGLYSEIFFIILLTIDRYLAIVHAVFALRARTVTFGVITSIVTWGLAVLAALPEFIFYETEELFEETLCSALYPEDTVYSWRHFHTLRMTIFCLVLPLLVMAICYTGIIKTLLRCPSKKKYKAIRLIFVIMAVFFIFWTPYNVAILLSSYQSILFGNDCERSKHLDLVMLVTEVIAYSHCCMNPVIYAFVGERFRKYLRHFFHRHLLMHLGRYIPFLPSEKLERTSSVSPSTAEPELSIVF
Experimental: as §1
Cells were infected by RSV for 2 hr incubation in the presence or the absence of 2 μg/ml of Eotaxin, or of PBS solution and cultured for 3 days. […]
Hep2 cells are known for being a permissive target cell for RSV infection and these cells express several chemokine receptors. […] However, keeping in mind that all cell extracts were normalized to the same quantity of proteins before being loaded into SDS-PAGE. […]

RSV A2 = assay: RSV plaque formation (infectivity) inhibition test in Hep-2 cell cultures; type: cell-based, respiratory syncytial virus (RSV) A2 strain; settings: Hep-2 cells
Experimental: The A2 strain of RSV was purchased from ATCC. The RSV was inoculated into a sub-confluent Hep-2 cell monolayer. […] The contents of the flask was resuspended in 1 ml aliquots, quick-frozen with alcohol/dry ice, and stored at −80° C. The virus titer of RSV was assessed by quantitative plaque forming assay and maintained titers in the range of 10^6 to 10^8pfu/ml for more than 6 months at −70° C.
Hep2 cells are known for being a permissive target cell for RSV infection and these cells express several chemokine receptors. Serial rounds of infections were performed with Hep-2 cells at different MOIs, ranging from 1:5 to 1:0.1. Hep-2 cells were systematically infected at these ranges of MOI. Subsequent experimental infection of Hep-2 cells with RSV were realized at a MOI 1:0.1. We investigated the role of the chemokine receptor CCR3 in supporting RSV infection. Immunoprecipitation technique followed by analysis of the immunoprecipitated complexes by SDS-PAGE were performed in order to gain insight into the physical contact between the RSV-G protein and the CCR3 receptor. Immunoprecipitation of the immune complexes will allow to assess, using SDS-PAGE and a specific antibody for the RSV-G protein, whether or not the contact of the virus glycoprotein with the cell receptor occurred. […] We noticed here that although the monoclonal antibody to RSV-G protein was diluted to 1:5000, it still cross reacted with a determinant of 43-45 kDa in all non infected or control cell types used in this work (see FIG. 1 lane 2). However, keeping in mind that all cell extracts were normalized to the same quantity of proteins before being loaded into SDS-PAGE. Therefore, the high intensity of the band, recognized by anti-RSV-G, and corresponding to the RSV-G protein precursor allowed us to differentiate between real infection and the background due to cross reactivity. We assessed if the CCR3 receptor was involved in virus infectivity of epithelial cells by performing RSV infectivity inhibition tests as described above. […]

Eotaxin (from UniProt P51671 24-97) (ligand)
percent inhibition of virus plaques formation (RSV A2 on Hep-2 cells) [1]: 80%

Rat anti-human CCR3 (clone 61828.111) (antibody)
decrease in RSV infection of CCR3+ GHOST cells, immunostaining [1]: 80%

Eotaxin
RSV infection of GHOST/CCR3 cells by immunostaining (RSV): inhibits infection by RSV
RSV infection of GHOST/CCR3 cells by immunostaining (RSV; listed as eotaxin): inhibits cellular infection by RSV
detection of RSV-G protein by RSV-G mAb in anti-CCR3 immunoprecipitated extracts [2]: failed to recognize the RSV-G protein
percent inhibition of virus plaques formation (RSV A2; Eotaxin greater or equal to 0.5 μg/ml, compared to PBS-treated cultures, three days post infection): 80%
RSV plaques as compared with PBS controls (RSV A2; each concentration of Eotaxin tested (0.01 to 1.0 μg/ml), p<0.05, Student's t-test): statistically fewer RSV plaques
timing of inhibition of RSV infection (FIG. 2) (RSV A2; eotaxin added to culture medium, during virus adsorption): inhibited RSV infection most effectively early in infection
